Earlier results in patent publication US10221122B2, “Enantiospecific process for the preparation of (R) and (S) enantiomers of sex pheromonoes of the long tailed mealy bug” (Council of Scientific & Industrial Research, priority 2015, dated 2019).
Read-outs that look alike come from different tables or passages of the source.

Columns and labels:
male mealybugs [1] = conditions: attraction lasting three months; reported by Miller group
[2] = test system: males of the American cockroach; conditions: Agric. Biol. Chem. 1979, 43(9), 1967-1974
American cockroach = conditions: J. Chem. Ecol. 1983, 9(3), 433-48
male mealybugs [3] = conditions: field trials; J. Org. Chem. 2013, 78, 6281-6284

| Structure (SMILES) | sex pheromonal activity (American cockroach; at 0.05 mg) | attractiveness to male mealybugs (male mealybugs [3]) | further results |
| --- | --- | --- | --- |
| CC(=O)OCCC1(C)C=CCC1(C)C (racemic) [racemic form of the pheromone] | – | – | amount sufficient to attract male mealybugs (male mealybugs [1]): 25 µg |
| CC(=O)OC1CC2CCC1(C)C2(C)C (single isomer, unassigned; (+)) [(+)-bornyl acetate] | showed the activity | – | excitation of males showing the typical sexual response [2]: excite males of the American cockroach |
| CC(=O)OCC[C@]1(C)C=CCC1(C)C [(R)-(−)-enantiomer, 2-[(1R)-1,5,5-trimethylcyclopent-2-en-1-yl]ethyl acetate] | – | neither attractive nor inhibitory | – |
| CC(=O)OCC[C@@]1(C)C=CCC1(C)C [(S)-(+)-enantiomer, 2-[(1S)-1,5,5-trimethylcyclopent-2-en-1-yl]ethyl acetate] | – | highly attractive | – |
| CCC(=O)OC1CC2CCC1(C)C2(C)C (stereo not shown) [Ic] | showed the activity | – | – |
| CCC(=O)OC1CC2CCC1(C)C2(C)C (single isomer, unassigned; (-)) [(−)-bornyl propionate] | – | – | sex pheromonal activity (American cockroach; at 0.5 mg dose): weak activity |
